Data on 26 substances can be found in paper PMC7367873, “Dissecting the sequence determinants for dephosphorylation by the catalytic subunits of phosphatases PP1 and PP2A” (Nature Communications, 2020).

For test [1], the system named is GFP-14-3-3β and its binding proteins. The test can be described thus: GFP-14-3-3β co-IP with LC-MS/MS label-free quantification, untreated versus PP1c-treated. Further details: species or system human. As for the experimental part: (§1) HeLa Kyoto cells expressing transiently transfected pEGFP(C1)-14-3-3β or pEGFP(C1) control plasmid, were incubated with 20 nM Calyculin A (# 9902 S, Cell Signaling Technology) for 12 min. Cells were washed twice on ice with cold PBS and after addition of 500 µL lysis buffer (100 mM NaCl, 10 mM Tris, 0.1% IGEPAL, 1 mM EDTA, 1 mM EGTA, 20 nM Calyculin A, 1x cOmplete Mini protease inhibitor cocktail (Sigma), 1 mM DTT, 1 mM MnCl2) cells were scraped from plates, lysed by 10 pushes through an injection needle (21 G, BD) and the insoluble fraction was pelleted by centrifugation (10 min, 10^4 rcf, 4 °C). Supernatants were then subjected to incubation with 1 µM recombinant phosphatase or buffer for 1 h at 30 °C. Next, we subjected samples to immunoprecipitation using α-GFP nanobodies covalently coupled to agarose beads (2 h, 4 °C, obtained from the EMBL PEPcore Core Facility). Beads were then washed three times with lysis buffer and samples were eluted in 1x LDS sample buffer (Thermo Fisher Scientific) by heating to 70 °C for 10 min.
(§2) The samples were then reduced with 25 mM dithiothreitol (10 min at 70 °C) and alkylated with 55 mM chloroacetamide (room temperature, 30 min, in the dark). Proteins were run on a precast 4–12% NuPAGE gel (ThermoFisher Scientific) for about 1 cm to concentrate the sample prior to in-gel tryptic digestion, which was performed according to the standard procedures. The peptides obtained were dried to completeness and resuspended in 12 µL of buffer A (0.1% FA), and 5 µL of sample were injected per MS measurement. The experiment was carried out in three independent replicates.
(§3) The samples were analyzed by LC-MS/MS on a Dionex Ultimate 3000 nano-HPLC coupled online to a Fusion Lumos Tribrid mass spectrometer (Thermo Fisher Scientific). Peptides were delivered to a trap column (75 µm × 2 cm, packed in-house with 5 µm C18 resin; Reprosil PUR AQ, Dr. Maisch) and washed using 0.1% FA at a flow rate of 5 µL/min for 10 min. Subsequently, peptides were transferred to an analytical column (75 µm × 45 cm, packed in-house with 3 µm C18 resin; Reprosil Gold) applying a flow rate of 300 nL/min and separated using a 60 min linear gradient from 4% to 32% LC solvent B (0.1% FA, 5% DMSO in ACN) in LC solvent A (0.1% FA in 5% DMSO). The eluate from the analytical column was sprayed via a stainless steel emitter (Thermo Fisher Scientific) at a source voltage of 2.1 kV into the mass spectrometer. The transfer capillary was heated to 275 °C. The Fusion Lumos was operated in positive ionization mode and data-dependent acquisition (DDA), automatically switching between MS1 and MS2 spectrum acquisition. Full scan MS1 spectra were recorded in the Orbitrap from 360 to 1300 m/z at a resolution of 60k (automatic gain control (AGC) target value of 4e5 charges, maximum injection time (maxIT) of 50 ms). Up to 20 peptide precursors were isolated (isolation window, 1.7 m/z; maximum injection time, 25 ms; and AGC value, 1e5), fragmented by high-energy collision-induced dissociation (HCD) using 30% normalized collision energy (NCE), and analyzed at a resolution of 15k in the Orbitrap. Precursor ions that were singly charged, unassigned, or with charge states >6+ were excluded. The dynamic exclusion duration of fragmented precursor ions was 20 s.
(§4) Peptide and protein identification and LFQ were performed using MaxQuant software (version 1.6.1.0)[64] by searching the data against all canonical protein sequences as annotated in the Swissprot reference database (human proteins only, 20193 entries, downloaded 22 March 2016, internally annotated with PFAM domains) using the embedded search engine Andromeda[65]. The MaxQuant search was performed using two variable modifications; oxidation of methionine and N-terminal protein acetylation. Carbamidomethylation on cysteines was specified as a fixed modification. Trypsin (Trypsin/P) was specified as the proteolytic enzyme with up to two allowed missed cleavage sites.

In test [2] the test system is GFP-14-3-3β. Kind of test: GFP-14-3-3β co-IP with LC-MS/MS, untreated GFP-14-3-3β versus GFP control (14-3-3 interactome). The test is classed as binding, human. As for the experimental part: as §1, §2, §3, §4
The mark [3] stands for this setting: PP1 vs untreated, LFQ intensities, replicates 1-3.
[4] abbreviates: untreated vs GFP, LFQ intensities, replicates 1-3.
The mark [5] stands for this setting: PP1 vs untreated, label-free quantification.
Where [6] appears, read: untreated vs GFP, label-free quantification.
Where [7] appears, read: GFP-14-3-3β co-IP LC-MS/MS, PP1 vs untreated, student's t-test, label-free quantification, 3 replicates each.
Setting [8] is: GFP-14-3-3β co-IP LC-MS/MS, untreated vs GFP, student's t-test, label-free quantification, 3 replicates each.
Where [9] appears, read: pairwise comparison PP1 vs untreated.
The mark [10] stands for this setting: pairwise comparison untreated vs GFP.
The mark [11] stands for this setting: log2 difference, pairwise comparison PP1 vs untreated, label-free quantification, 3 replicates each.
Where [12] appears, read: log2 difference, pairwise comparison untreated vs GFP, label-free quantification, 3 replicates each.
Setting [13] is: pairwise comparison PP1 vs untreated, student's t-test, 3 replicates each, LC-MS/MS label-free quantification.
[14] abbreviates: pairwise comparison untreated GFP-14-3-3β vs GFP, student's t-test, 3 replicates each, LC-MS/MS label-free quantification.

As for NUP210, in test [1] (setting [3]), the “Difference (log2), PP1 vs untreated” value is -1.109 log2. Also, the “Difference (log2), untreated vs GFP” value in test [2] (setting [4]) is reported as 2.632 log2.

Turning to G3BP1, in test [1] (setting [5]), the “Difference (log2), PP1 vs untreated” value came out at 0.9288 log2. The “Difference (log2), untreated vs GFP” value in test [2] (setting [6]) was -0.3554 log2.

Take SNRNP200: the “Difference (log2), PP1 vs untreated” value in test [1] (setting [7]) was -0.2654 log2. In test [2] (setting [8]), the “Difference (log2), untreated vs GFP” value worked out at 1.652 log2.

As to SEC16A, the “Difference (log2), PP1 vs untreated” value in test [1] (setting [3]) is -1.037 log2. In test [2] (setting [4]), the “Difference (log2), untreated vs GFP” value amounted to 2.809 log2.

As to EPPK1, in test [1] (setting [9]), the “Difference (log2), PP1 vs untreated” value is on record as 0.1139 log2. Also, the “Difference (log2), untreated vs GFP” value in test [2] (setting [10]) is reported as 0.5175 log2.

On to HSPA1B;HSPA1A, for which the “Difference (log2), PP1 vs untreated” value in test [1] (setting [3]) is recorded as -0.7937 log2. The “Difference (log2), untreated vs GFP” value in test [2] (setting [4]) came out at 0.2148 log2.

Take MLEC: in test [1] (setting [3]), the “Difference (log2), PP1 vs untreated” value is -1.535 log2. The “Difference (log2), untreated vs GFP” value in test [2] (setting [4]) was 0.8854 log2.

For AHNAK, the “Difference (log2), PP1 vs untreated” value in test [1] (setting [7]) is recorded as -0.4038 log2. The “Difference (log2), untreated vs GFP” value in test [2] (setting [8]) is on record as -1.21 log2.

For the substance FXR2, the “Difference (log2), PP1 vs untreated” value in test [1] (setting [11]) is listed as 2.11. Also, in test [2] (setting [12]), the “Difference (log2), untreated vs GFP” value was -0.343.

For the substance MED1, the “Difference (log2), PP1 vs untreated” value in test [1] (setting [5]) is on record as 1.148 log2. Besides, in test [2] (setting [6]), the “Difference (log2), untreated vs GFP” value is 0.09613 log2.

Consider SRSF1, for which the “Difference (log2), PP1 vs untreated” value in test [1] (setting [13]) is listed as -3.492 log2. In test [2] (setting [14]), the “Difference (log2), untreated vs GFP” value came to 4.313 log2.

For BCLAF1, the “Difference (log2), PP1 vs untreated” value in test [1] (setting [3]) was -1.628 log2. For the same substance, in test [2] (setting [4]), the “Difference (log2), untreated vs GFP” value worked out at 1.7962 log2.

Take HSPA5: in test [1] (setting [7]), the “Difference (log2), PP1 vs untreated” value was -0.6263 log2. Besides, in test [2] (setting [8]), the “Difference (log2), untreated vs GFP” value was -0.3432 log2.

Take MAP7D1: the “Difference (log2), PP1 vs untreated” value in test [1] (setting [5]) stood at 0.8008 log2. Further, in test [2] (setting [6]), the “Difference (log2), untreated vs GFP” value is recorded as 0.3595 log2.

In the case of NONO, the “Difference (log2), PP1 vs untreated” value in test [1] (setting [3]) was -0.8439 log2. The “Difference (log2), untreated vs GFP” value in test [2] (setting [4]) is recorded as 0.331 log2.

EPRS: the “Difference (log2), PP1 vs untreated” value in test [1] (setting [7]) was -0.1517 log2. The “Difference (log2), untreated vs GFP” value in test [2] (setting [8]) is given as -0.2032 log2.

On to DENND4C, for which the “Difference (log2), PP1 vs untreated” value in test [1] (setting [13]) is -4.253 log2. Besides, the “Difference (log2), untreated vs GFP” value in test [2] (setting [14]) is listed as 3.4091 log2.

CKAP5: in test [1] (setting [7]), the “Difference (log2), PP1 vs untreated” value is on record as -0.2118 log2. Besides, the “Difference (log2), untreated vs GFP” value in test [2] (setting [8]) is reported as -0.6501 log2.

DPYSL3;CRMP1: the “Difference (log2), PP1 vs untreated” value in test [1] (setting [11]) worked out at 2.547. The “Difference (log2), untreated vs GFP” value in test [2] (setting [12]) is -3.981.

On to TUBB, for which, in test [1] (setting [7]), the “Difference (log2), PP1 vs untreated” value was -0.1729 log2. For the same substance, the “Difference (log2), untreated vs GFP” value in test [2] (setting [8]) is listed as -1.012 log2.

As to RNF213, in test [1] (PP1 vs untreated, LFQ intensities, 3 replicates each), the “Difference (log2), PP1 vs untreated” value is 0.6499 log2. In test [2] (untreated vs GFP, LFQ intensities, 3 replicates each), the “Difference (log2), untreated vs GFP” value was 0.8982 log2.

In the case of HNRNPK, the “Difference (log2), PP1 vs untreated” value in test [1] (setting [9]) came to 0.05533 log2. In test [2] (setting [10]), the “Difference (log2), untreated vs GFP” value stood at 0.6096 log2.

Consider DTX3L, for which the “Difference (log2), PP1 vs untreated” value in test [1] (setting [9]) was -0.03751 log2. For the same substance, in test [2] (setting [10]), the “Difference (log2), untreated vs GFP” value was determined as 0.3421 log2.

SOGA1: the “Difference (log2), PP1 vs untreated” value in test [1] (setting [5]) was determined as 0.818 log2. In addition, the “Difference (log2), untreated vs GFP” value in test [2] (setting [6]) was -0.02242 log2.

As to WWC1, the “Difference (log2), PP1 vs untreated” value in test [1] (setting [13]) is on record as -3.748 log2. Also, the “Difference (log2), untreated vs GFP” value in test [2] (setting [14]) is on record as 3.436 log2.

As for TSC2, the “Difference (log2), PP1 vs untreated” value in test [1] (setting [13]) is on record as -4.834 log2. Moreover, the “Difference (log2), untreated vs GFP” value in test [2] (setting [14]) came out at 4.192 log2.
